Assay results from patent US20050267204A1, “Synergistic gold-containing compositions” (MEDICAL INNOVATIONS LIMITED, priority 1996, published 2005).
Where two headings read alike, the source gives them in different places. One block for each molecule: values may come before it.

Key:
Type in all cases: in vivo, BALB/c mice
[1] = system: TPA-induced epidermal hyperplasia; assay: Inhibition of TPA-induced epidermal hyperplasia (epidermal thickness) on back skin of mice; conditions: for Relative potency: hydrocortisone acetate = 1.0
Method: (§1) The mice were housed in stainless steel cages, 6 mice per cage under normal laboratory conditions (room temperature at about 22° C.) at least 7 days before the experiments for acclimatization. Food and water were allowed ad libitum throughout the experiment period. The backs of the mice were shaved with an electric clipper two days before each treatment and only those mice showing no hair regrowth were used (i.e., the mice in the resting phase of the hair growth cycle were selected). During treatment, the mice were held with their tails and put on top of the cage so that they grasped the cage and rested there. The solutions were applied to an area approximately 2 cm×2 cm on the shaved back of the mice by using a “Pipetman” to apply the solution. If auranofin ointment or ointment base was applied, the amount was standardized by using a microspatula which was crimped at one end, the ointment was then put into the ridge and the excess removed by means of another microspatula and applied sparingly twice a day. After a fixed time, the mice were killed routinely by cervical dislocation between 9 a.m. and 11 a.m. to avoid variations due to circadian rhythms, and an area (1 cm×1 cm) was excised from the centre of the treated area by scalpel and scissors. The rest of the tissues were disposed by combustion. The tissues were then fixed, embedded, sectioned and stained.
(§2) Epidermal thickness was determined by image analysis. This image analysis system was a minicomputer (Tracor Northern TN8500) attached to a light microscope (Zeiss Axioplan) and a camcorder (Sony DXC-3000P). Sections were taken from each tissue block and 20 measurements were taken at fixed intervals from each section. The average value for the 20 measurements was obtained and entered as one value for each mouse. The mean and SEM for the six mice in each treatment group were calculated.
(§3) The percent inhibition of drug on TPA-induced skin responses (i.e., epidermal hyperplasia, inflammatory cell infiltration and skin-fold thickness) was calculated by using the following formula: [formula]
(§4) This provides estimates of (a) the potency, (b) the efficacy or maximum effect (Emax) and the slope of the log concentration-response curve by using Hill coefficient (γ). The Hill Equation may be expressed as follows: [formula] where IC50 is the drug concentration producing 50% of the maximal response and Emax refers to the maximal effect produced by the drug and is also termed efficacy. Efficacy is the measurement of the intrinsic ability of a drug to initiate a response once it occupies receptor sites. […] The Hill coefficient (γ) measures the slope of the dose-effect curve which can be markedly influenced by the shape of the curve that describes the binding of the drug to the receptor. For many drugs, y lies between 0.6 and 1.5. […] On the other hand, when γ is less than 1, with a shallow hyperbolic concentration effect relationship, the activity occurs over a wide range of drug levels.
(§5) In the present study, concentration-response curves were obtained for a series of corticosteroids. In these experiments, curve fitting was accomplished using a computer programme called “The Scientist” (MicroMath Scientific Software, Salt Lake City, Utah, USA.) in which the parameters, Emax, IC50 and Hill coefficient (γ) for each steroids were estimated by using non-linear regression and least square fits.
Mice were divided into treatment groups. TPA and corticosteroids were premixed to the concentrations required and applied to the backs of mice immediately. For those steroids not very soluble in acetone (i.e., betamethasone, dexamethasone, hydrocortisone and hydrocortisone acetate), the drugs were dissolved in 100 μL dimethylformamide before further dilution with acetone. The efficacy of corticosteroids in inhibiting epidermal hyperplasia, inflammatory cell infiltration and skin-fold thickness was assessed as described previously. Concentration-response curves were determined after computer-fitting of data.

[2] = system: TPA-induced inflammatory cell infiltration into the dermis; assay: Inhibition of TPA-induced inflammatory cell infiltration into the dermis of mice; conditions: for Relative potency: hydrocortisone acetate = 1.0
Method: as §1
(§6) Infiltration of inflammatory cells was determined by the same image analysis system using the section taken from the block of mouse skin embedded in paraffin wax or Spurr's resin and stained with haematoxylin and eosin or toluidine blue respectively. For each section, 10 fields, unless otherwise stated, were chosen randomly and the cell density per mm^2 of field determined. The average value for the 10 fields was obtained and entered as one value for each mouse. The mean and SEM for the six mice in each treatment group were calculated.
The measurement of the inflammatory cell infiltration included the background values which included other materials in the dermis stained in the same way.
as §3, §4, §5
Mice were divided into treatment groups. TPA and corticosteroids were premixed to the concentrations required and applied to the backs of mice immediately.

[3] = system: dermal inflammatory cell density; assay: Time course of TPA effects on skin of mice: dermal inflammatory cell density; conditions: for Increase in dermal inflammatory cell density: single application 100 μL TPA 0.01% in acetone
Method: as §6
The measurement of the inflammatory cell infiltration included the background values which included other materials in the dermis stained in the same way. However, the increase, if there is any, reflects the migration of inflammatory cells.
(§7) This study was conducted to determine the time course of effects produced by applying TPA to mice and killing at intervals of 1, 2, 3, 5 and 8 days. Peak times for epidermal hyperplasia, dermal inflammation and skin-fold thickness were determined. The object of this study was to determine the best time to sacrifice TPA-treated mice so as to obtain the maximum response to TPA. […] It was thus expected that a compromise time would have to be selected.
(§8) Forty two female BALB/c strain mice were divided into the treatment groups and the mice were treated with a single application (100 μL) of TPA (0.01% in acetone) and sacrificed at days 1, 2, 3, 5 and 8 and the time course of TPA effects on epidermal hyperplasia, dermal inflammatory cell infiltration and skin-fold thickness measured as described in Example 1.

epidermal thickness = assay: Time course of TPA effects on skin of mice: epidermal thickness; conditions: for Increase in epidermal thickness: single application 100 μL TPA 0.01% in acetone
Method: as §2, §7, §8

skin-fold thickness = assay: Time course of TPA effects on skin of mice: skin-fold thickness; conditions: for Increase in skin-fold thickness: single application 100 μL TPA 0.01% in acetone
Method: The back skin of shaved mice was folded and measured by using a “Etalon” micrometer screw gauge. One measurement was taken for each mouse.
as §7, §8

[4] = Hill equation fit, means ± SD, steroid premixed with TPA, topical
[5] = Hill equation fit, means ± SD, steroid premixed with TPA, topical, read-out: IC50 (M × 10^−4)
[6] = IC50 without auranofin divided by IC50 with auranofin (0.2%)
[7] = with auranofin (0.2%), from computer fitted graph, means ± SD, read-out: Apparent IC50 (M × 10^−4) with auranofin
[8] = without auranofin, from computer fitted graph, means ± SD, read-out: Apparent IC50 (M × 10^−4) without auranofin
[9] = Mus musculus, topical, Hill equation fit, means ± SD, steroid premixed with TPA, topical, read-out: IC50 (M × 10^−4)
[10] = Mus musculus, Hill equation fit, means ± SD, steroid premixed with TPA, topical, read-out: Emax (% inhibition)

IC50 [1, 5]: 23 ± 4 µM
IC50 ([1]; from Hill equation, concentration that produced 50% of Emax, read-out: IC50 for inhibition of epidermal thickening (M × 10^−4)): 23 µM
IC50 ([1]; read from concentration-response curve, concentration that inhibited 50% of the TPA effect, read-out: IC50 for inhibition of epidermal thickening (M × 10^−4)): 40 µM
IC50 [1, 7]: 31 ± 5 µM
IC50 [1, 8]: 40 ± 4 µM
IC50 [2, 5]: 20 ± 5 µM
IC50 ([2]; from Hill equation, concentration that produced 50% of Emax, read-out: IC50 for inhibition of inflammatory cell infiltration in the dermis (M × 10^−4)): 20 µM
Increase in apparent IC50 ([2]; in presence of auranofin (0.2%), Table 10): about 3,800%
IC50 ([2]; read from concentration-response curve, concentration that inhibited 50% of the TPA effect, read-out: IC50 for inhibition of inflammatory cell infiltration in the dermis (M × 10^−4)): 30 µM
IC50 [2, 7]: 0.8 ± 0.1 µM
IC50 [2, 8]: 30 ± 5 µM
Compound: C[C@@H]1C[C@H]2[C@@H]3CCC4=CC(=O)C=C[C@]4(C)[C@@]3(Cl)[C@@H](O)C[C@]2(C)[C@@]1(OC(=O)c1ccco1)C(=O)CCl [Mometasone furoate, mometasone furoate]
Emax (% inhibition) [1, 4]: 83.31 ± 3.04 % inhibition
Synergistic factor [1, 6]: 1.29
Synergism with auranofin, epidermal hyperplasia (in words) ([1]; auranofin (0.2%) co-administered): no synergism or even additive effect
Relative potency ([1]; from Hill-equation IC50): 159.43
Relative potency ([1]; from IC50 read from curve): 175.0
Potency for inhibition of TPA-induced epidermal hyperplasia (in words) ([1]; ranking in text): strong to very strong potencies
Emax (% inhibition) [2, 4]: 89.98 ± 4.88^ % inhibition
Synergistic factor [2, 6]: 37.50
Synergism with auranofin, inflammatory cell infiltration (in words) ([2]; auranofin (0.2%), FIG. 2): massive synergism
Concentration that, in the absence of auranofin, produced an equal effect to the combination ([2]; equal to 5×10^−4 M with auranofin (0.2%), FIG. 2): 1 mM
Relative potency ([2]; from Hill-equation IC50): 386.65
Relative potency ([2]; from IC50 read from curve): 366.67
Potency for inhibition of TPA-induced inflammatory cell infiltration (in words) ([2]; ranking in text): strong to very strong anti-inflammatory effect

Compound: CCCCCCCCCCCCCC(=O)O[C@@H]1[C@@H](C)[C@@]2(O)[C@@H](C=C(CO)C[C@]3(O)C(=O)C(C)=C[C@@H]23)[C@@H]2C(C)(C)[C@]12OC(C)=O [TPA, 12-O-tetradecanoylphorbol 13-acetate]
Increase in dermal inflammatory cell density ([3]; Day 1): 397%
Increase in dermal inflammatory cell density ([3]; Day 2): 296%
Increase in dermal inflammatory cell density ([3]; Day 3): 272%
Increase in dermal inflammatory cell density ([3]; Day 5): 280%
Increase in dermal inflammatory cell density ([3]; Day 8): 225%
Time of peak effect, dermal inflammation ([3]; single application of TPA): 24 h
Increase in epidermal thickness (epidermal thickness; Day 1): 326%
Increase in epidermal thickness (epidermal thickness; Day 2): 382%
Increase in epidermal thickness (epidermal thickness; Day 3): 393%
Increase in epidermal thickness (epidermal thickness; Day 5): 270%
Increase in epidermal thickness (epidermal thickness; Day 8): 130%
Time of peak effect, epidermal hyperplasia (epidermal thickness; single application of TPA): 72 h
Increase in skin-fold thickness (skin-fold thickness; Day 1): 193%
Increase in skin-fold thickness (skin-fold thickness; Day 2): 142%
Increase in skin-fold thickness (skin-fold thickness; Day 3): 124%
Increase in skin-fold thickness (skin-fold thickness; Day 5): 116%
Increase in skin-fold thickness (skin-fold thickness; Day 8): 107%
Time of peak effect, skin-fold thickening (skin-fold thickness; single application of TPA): 24 h

IC50 ([1]; Mus musculus, from Hill equation, concentration that produced 50% of Emax, read-out: IC50 for inhibition of epidermal thickening (M × 10^−4)): 113 µM
IC50 ([1]; Mus musculus, read from concentration-response curve, concentration that inhibited 50% of the TPA effect, read-out: IC50 for inhibition of epidermal thickening (M × 10^−4)): 140 µM
IC50 [1, 9]: 113 ± 35 µM
IC50 ([2]; Mus musculus, from Hill equation, concentration that produced 50% of Emax, read-out: IC50 for inhibition of inflammatory cell infiltration in the dermis (M × 10^−4)): 39 µM
IC50 ([2]; Mus musculus, read from concentration-response curve, concentration that inhibited 50% of the TPA effect, read-out: IC50 for inhibition of inflammatory cell infiltration in the dermis (M × 10^−4)): 70 µM
IC50 [2, 9]: 39 ± 3 µM
Compound: CC1(C)O[C@@H]2C[C@H]3[C@@H]4CCC5=CC(=O)C=C[C@]5(C)[C@@]4(F)[C@@H](O)C[C@]3(C)[C@]2(C(=O)CO)O1 [Triamcinolone acetonide]
Emax [1, 10]: 89.8 ± 6.4%
Relative potency ([1]; from Hill-equation IC50): 32.45
Relative potency ([1]; from IC50 read from curve): 50.0
Emax [2, 10]: 77.2 ± 1.26%
Relative potency ([2]; from Hill-equation IC50): 198.28
Relative potency ([2]; from IC50 read from curve): 157.14
